According to patent publication US20130269064A1, “INSECTICIDAL COMPOUNDS” (SYNGENTA PARTICIPATIONS AG, priority 2010, published 2013):

What was measured:
Format in all cases: in vivo
Plutella xylostella = Plutella xylostella (diamond back moth) artificial diet test; details: 144 h, 200 ppm (concentration in well 18 ppm), L2 larvae, 6 days, larval mortality and growth regulation
Protocol: Plutella xylostella (Diamond Back Moth): A 24-well microtiter plate (MTP) with artificial diet was treated with test solutions at an application rate of 200 ppm (concentration in well 18 ppm) by pipetting. After drying, the MTP's were infested with L2 larvae (7-12 per well). After an incubation period of 6 days, samples were checked for larval mortality and growth regulation.

Thrips tabaci = Thrips tabaci (onion thrips) sunflower leaf disc test; details: foliar, 168 h, 200 ppm sprayed on sunflower leaf discs, mixed ages, 7 days, mortality
Protocol: Thrips tabaci (Onion Thrips): Sunflower leaf discs were placed on agar in a 24-well microtiter plate and sprayed with test solutions at an application rate of 200 ppm. After drying, the leaf discs were infested with an […] population of mixed ages. After an incubation period of 7 days, samples were checked for mortality.

Diabrotica balteata = Diabrotica balteata (corn root worm) artificial diet test; details: 120 h, 200 ppm (concentration in well 18 ppm), L2 larvae, 5 days, larval mortality and growth regulation
Protocol: Diabrotica balteata (Corn Root Worm): A 24-well microtiter plate (MTP) with artificial diet was treated with test solutions at an application rate of 200 ppm (concentration in well 18 ppm) by pipetting. After drying, the MTP's were infested with larvae (L2) (6-10 per well). After an incubation period of 5 days, samples were checked for larval mortality, and growth regulation.

Spodoptera littoralis = Spodoptera littoralis (Egyptian cotton leafworm) cotton leaf disc test; details: foliar, 72 h, 200 ppm sprayed on cotton leaf discs, 5 L1 larvae, mortality, feeding behaviour, growth regulation 3 DAT
Description: Spodoptera littoralis (Egyptian Cotton Leafworm): Cotton leaf discs were placed on agar in a 24-well microtiter plate and sprayed with test solutions at an application rate of 200 ppm. After drying, the leaf discs were infested with 5 L1 larvae. The samples were checked for mortality, feeding behaviour, and growth regulation 3 days after treatment (DAT).

Heliothis virescens = Heliothis virescens (tobacco budworm) egg/artificial diet test; details: 96 h, 200 ppm (concentration in well 18 ppm), eggs 0-24 h old on artificial diet, 4 days, egg mortality, larval mortality, growth regulation
Protocol: Heliothis virescens (Tobacco Budworm): Eggs (0-24 h old) were placed in 24-well microtiter plate on artificial diet and treated with test solutions at an application rate of 200 ppm (concentration in well 18 ppm) by pipetting. After an incubation period of 4 days, samples were checked for egg mortality, larval mortality and growth regulation.

Tetranychus urticae = Tetranychus urticae (two-spotted spider mite) bean leaf disc test; details: foliar, 192 h, 200 ppm sprayed on bean leaf discs, mixed ages, 8 days, egg, larval and adult mortality
Description: Tetranychus urticae (Two-Spotted Spider Mite): Bean leaf discs on agar in 24-well microtiter plates were sprayed with test solutions at an application rate of 200 ppm. After drying, the leaf discs are infested with mite populations of mixed ages. 8 days later, discs are checked for egg mortality, larval mortality, and adult mortality.

Measured: pest or weed control at 200 ppm

Cn1nc(C(F)(F)C(F)(F)F)c(C(F)(F)F)c1NC(=O)c1ccc(C#N)c(NC(=O)c2ccccc2)c1 [Compound A2]
not listed: Tetranychus urticae
≥ 80%: all other assays above

Cn1nc(C(F)(F)C(F)(F)F)c(C(F)(F)F)c1NC(=O)c1cccc(NC(=O)c2ccc(C#N)cc2)c1F [Compound B4]
not listed: Thrips tabaci
≥ 80%: all other assays above

Cn1nc(C(F)(F)C(F)(F)F)c(C(F)(F)F)c1NC(=O)c1cccc(NC(=O)c2ccc([N+](=O)[O-])cc2)c1F [Compound B5]
not listed: Thrips tabaci
≥ 80%: all other assays above

Cn1nc(C(F)(F)C(F)(F)F)c(C(F)(F)F)c1NC(=O)c1cccc(NC(=O)c2ccc(F)cc2)c1F [Compound B17]
not listed: Thrips tabaci
≥ 80%: all other assays above

Cn1nc(C(F)(F)C(F)(F)F)c(C(F)(F)F)c1NC(=O)c1cccc(NC(=O)c2ccccc2F)c1 [Compound D1]
not listed: Tetranychus urticae
≥ 80%: all other assays above

Cc1ccccc1C(=O)Nc1cccc(C(=O)Nc2c(C(F)(F)F)c(C(F)(F)C(F)(F)F)nn2C)c1 [Compound D2]
≥ 80%: Plutella xylostella | Diabrotica balteata | Spodoptera littoralis | Heliothis virescens

Cn1nc(C(F)(F)C(F)(F)F)c(C(F)(F)F)c1NC(=O)c1cccc(NC(=O)c2ccccc2Cl)c1 [Compound D3]
not listed: Tetranychus urticae
≥ 80%: all other assays above

Cn1nc(C(F)(F)C(F)(F)F)c(C(F)(F)F)c1NC(=O)c1cccc(NC(=O)c2ccc(C#N)cc2)c1 [Compound D4]
≥ 80%: Diabrotica balteata | Tetranychus urticae

Cn1nc(C(F)(F)C(F)(F)F)c(C(F)(F)F)c1NC(=O)c1cccc(NC(=O)c2ccc([N+](=O)[O-])cc2)c1 [Compound D5]
≥ 80%: Plutella xylostella | Diabrotica balteata | Spodoptera littoralis | Heliothis virescens

Cc1cc(F)ccc1C(=O)Nc1cccc(C(=O)Nc2c(C(F)(F)F)c(C(F)(F)C(F)(F)F)nn2C)c1 [Compound D7]
not listed: Thrips tabaci
≥ 80%: all other assays above

Cn1nc(C(F)(F)C(F)(F)F)c(C(F)(F)F)c1NC(=O)c1cccc(NC(=O)c2ccc(OC(F)(F)F)cc2)c1 [Compound D11]
≥ 80%: Plutella xylostella | Diabrotica balteata | Spodoptera littoralis | Heliothis virescens

Cn1nc(C(F)(F)C(F)(F)F)c(C(F)(F)F)c1NC(=O)c1cccc(NC(=O)c2ccc(C(F)(F)F)cc2)c1 [Compound D13]
not listed: Tetranychus urticae
≥ 80%: all other assays above

Cn1nc(C(F)(F)C(F)(F)F)c(C(F)(F)F)c1NC(=O)c1cccc(NC(=O)c2ccccc2)c1 [Compound D16]
≥ 80%: Plutella xylostella | Thrips tabaci | Diabrotica balteata | Spodoptera littoralis

Cn1nc(C(F)(F)C(F)(F)F)c(C(F)(F)F)c1NC(=O)c1cccc(NC(=O)c2cccc(F)c2F)c1 [Compound D21]
not listed: Tetranychus urticae
≥ 80%: all other assays above

Cc1cc(C#N)ccc1C(=O)Nc1cccc(C(=O)Nc2c(C(F)(F)F)c(C(F)(F)C(F)(F)F)nn2C)c1 [Compound D24]
≥ 80%: Plutella xylostella | Diabrotica balteata | Spodoptera littoralis | Tetranychus urticae

Cn1nc(C(F)(F)C(F)(F)F)c(C(F)(F)F)c1NC(=O)c1ccc(Cl)c(NC(=O)c2ccccc2Cl)c1 [Compound E3]
≥ 80%: Plutella xylostella | Diabrotica balteata | Spodoptera littoralis | Heliothis virescens

Cn1nc(C(F)(F)C(F)(F)F)c(C(F)(F)F)c1NC(=O)c1ccc(Cl)c(NC(=O)c2ccc(C#N)cc2)c1 [Compound E4]
≥ 80%: Plutella xylostella | Diabrotica balteata | Spodoptera littoralis | Heliothis virescens

Cc1cc(F)ccc1C(=O)Nc1cc(C(=O)Nc2c(C(F)(F)F)c(C(F)(F)C(F)(F)F)nn2C)ccc1Cl [Compound E7]
not listed: Thrips tabaci
≥ 80%: all other assays above

Cn1nc(C(F)(F)C(F)(F)F)c(C(F)(F)F)c1NC(=O)c1ccc(Cl)c(NC(=O)c2ccc([N+](=O)[O-])cc2Cl)c1 [Compound E9]
≥ 80%: Diabrotica balteata | Tetranychus urticae

Cn1nc(C(F)(F)C(F)(F)F)c(C(F)(F)F)c1NC(=O)c1ccc(Cl)c(NC(=O)c2ccccc2)c1 [Compound E16]
≥ 80%: Plutella xylostella | Diabrotica balteata | Spodoptera littoralis | Heliothis virescens

Cn1nc(C(F)(F)C(F)(F)F)c(C(F)(F)F)c1NC(=O)c1ccc(Cl)c(NC(=O)c2ccc(F)cc2)c1 [Compound E17]
≥ 80%: Plutella xylostella | Diabrotica balteata | Spodoptera littoralis | Heliothis virescens

Cn1nc(C(F)(F)C(F)(F)F)c(C(F)(F)F)c1NC(=O)c1ccc(Cl)c(NC(=O)c2ccc(F)cc2Cl)c1 [Compound E19]
not listed: Thrips tabaci
≥ 80%: all other assays above

Cc1cc(C#N)ccc1C(=O)Nc1cc(C(=O)Nc2c(C(F)(F)F)c(C(F)(F)C(F)(F)F)nn2C)ccc1Cl [Compound E24]
not listed: Thrips tabaci
≥ 80%: all other assays above

Cn1nc(C(F)(F)C(F)(F)F)c(C(F)(F)F)c1NC(=O)c1ccc(C#N)c(NC(=O)c2ccncc2)n1 [Compound F2]
≥ 80%: Plutella xylostella | Diabrotica balteata | Heliothis virescens | Tetranychus urticae
